Results published in paper PMC4171615, “Discovery of selective inhibitors of Glutaminase-2, which inhibit mTORC1, activate autophagy and inhibit proliferation in cancer cells” (Oncotarget, 2014).

Tests used:
human GAB = molecular target: T1, human GAB (Homo sapiens, UniProt Q9UI32); assay: Two-step glutaminase activity assay, purified recombinant GAB; format: biochemical; conditions: recombinant wild-type GAB, absence of phosphate
T1 construct: Equivalent construct of GAB (Pro56-Val602) was amplified from the cDNA clone; His-tag (N); made in house; host or cells: Escherichia coli C41(DE3)pLysS
T1 sequence (Q9UI32 56-602): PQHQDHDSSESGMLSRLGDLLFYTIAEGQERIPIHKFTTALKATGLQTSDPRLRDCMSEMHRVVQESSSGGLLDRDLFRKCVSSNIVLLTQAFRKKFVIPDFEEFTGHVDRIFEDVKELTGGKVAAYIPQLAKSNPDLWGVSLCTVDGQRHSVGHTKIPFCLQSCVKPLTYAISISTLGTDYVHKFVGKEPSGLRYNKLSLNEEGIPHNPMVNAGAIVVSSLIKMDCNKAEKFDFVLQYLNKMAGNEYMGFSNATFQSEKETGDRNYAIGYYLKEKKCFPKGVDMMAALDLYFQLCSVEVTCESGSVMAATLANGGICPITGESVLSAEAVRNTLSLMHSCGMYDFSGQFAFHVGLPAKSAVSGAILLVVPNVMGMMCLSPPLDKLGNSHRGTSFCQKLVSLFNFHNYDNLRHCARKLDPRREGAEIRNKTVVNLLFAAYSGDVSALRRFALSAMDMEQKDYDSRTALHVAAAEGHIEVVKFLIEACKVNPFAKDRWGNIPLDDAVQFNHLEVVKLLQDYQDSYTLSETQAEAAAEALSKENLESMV
Method: Equivalent construct of GAB […]) was amplified from the cDNA clone MGC: 195512 IMAGE: 100066375 (Invitrogen Inc., USA). The sequences of the primers were: [NT] (BamHI) and [NT] (Notl). The resultant GAB-expression vector, pET28a(+)-GAB, was transformed into Escherichia coli strain […] Biotech Co., Taiwan). The expression protocol was followed as that protocol of KGA construct. The cells after induction were collected and resuspended in lysis buffer (50 mM Tris-HCl pH 8.5, 500 mM NaCl, 10% glycerol, and 10 mM β-ME) for sonication. […] His-tagged GAB was eluted with lysis buffer containing 200 mM imidazole. The eluted GAB was exchanged to 20 mM Tris-HCl (pH 8.0), 300 mM NaCl, 50% glycerol, and 2 mM dithiothreitol by using a PD-10 Desalting column (GE Healthcare). Human glutaminase activity was measured using a two-step assay as described previously. A microtiter assay format was used to facilitate the collection of multiple data points. […] Samples were incubated at 25°C for 10 min and then 10 μl of 200 mM glutamine were added to the reaction mix. After adding glutamine, the reactions were incubated at 37°C for 60 min and then quenched by the addition of 10 μl of 0.6 M HCl. Subsequently, 100 μl of a second reaction mixture (3.7 units of purified bovine liver glutamate dehydrogenase, 160 mM Tris/acetate [pH 9.4], 400 mM hydrazine, 5 mM ADP and 2 mM NAD^+) was added to the stopped first reaction mixture and incubated for 30 min at 25°C. The absorbance at 340 nm was measured using a Wallac Victor2V plate reader (PerkinElmer), fitted with a 340 nm excitation filter. Sample absorbance was measured against a blank, containing no human glutaminase. The kinetic constants Km and Vmax were determined by using Kaleida Graph software (Synergy Software) to calculate a non-linear least-squares fit for all the data points to the Michaelis-Menten equation.

human KGA = molecular target: T2, human KGA (Homo sapiens, UniProt O94925); assay: Two-step glutaminase activity assay, purified recombinant KGA; format: biochemical; conditions: recombinant wild-type KGA, absence of phosphate
T2 construct: a KGA cDNA fragment of 1644 bp (residues Leu123-Leu669); His-tag (N); made in house; host or cells: Escherichia coli BL21(DE3)pLysS
T2 sequence (O94925 123-669): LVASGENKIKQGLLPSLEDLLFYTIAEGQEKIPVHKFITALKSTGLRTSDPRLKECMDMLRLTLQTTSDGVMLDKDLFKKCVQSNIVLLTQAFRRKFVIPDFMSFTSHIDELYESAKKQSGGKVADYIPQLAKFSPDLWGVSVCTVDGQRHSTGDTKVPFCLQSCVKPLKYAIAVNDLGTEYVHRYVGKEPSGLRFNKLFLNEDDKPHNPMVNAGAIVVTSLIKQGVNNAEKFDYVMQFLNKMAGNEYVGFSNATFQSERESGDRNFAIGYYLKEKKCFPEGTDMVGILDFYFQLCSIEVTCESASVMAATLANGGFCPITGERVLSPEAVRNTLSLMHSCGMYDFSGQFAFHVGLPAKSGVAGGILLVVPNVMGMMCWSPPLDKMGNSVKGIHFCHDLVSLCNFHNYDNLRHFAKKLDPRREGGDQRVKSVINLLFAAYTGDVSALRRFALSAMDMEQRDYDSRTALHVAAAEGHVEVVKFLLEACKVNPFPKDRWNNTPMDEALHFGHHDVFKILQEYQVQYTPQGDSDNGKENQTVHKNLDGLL
Method: The cDNA fragment of KGA digested with BamHI and NotI at each end was ligated into the pET28a(+) vector (Novagen) and expressed as a his-tag fusion. Escherichia coli strain BL21(DE3)pLysS was transformed with the resulting plasmid, pET28a(+)-KGA, and then cultured in Luria-Bertani broth medium in the presence of kanamycin. […] The cells were harvested by centrifugation at 10,000 rpm for 15 min at 4°C and resuspended in lysis buffer (5 mM Tris-HCl [pH 8.0], 50 mM NaH2PO4, 300 mM NaCl and 10 mM imidazole) for sonication. […] The eluted protein was exchanged to 20 mM Tris-HCl (pH 8.0), 300 mM NaCl, 10% glycerol, and 2 mM dithiothreitol by using a PD-10 Desalting column (GE Healthcare). The concentration of the purified protein was determined by use of the Bio-Rad protein assay reagent with a standard curve plotted against bovine serum albumin. […] A microtiter assay format was used to facilitate the collection of multiple data points. […] Samples were incubated at 25°C for 10 min and then 10 μl of 200 mM glutamine were added to the reaction mix. After adding glutamine, the reactions were incubated at 37°C for 60 min and then quenched by the addition of 10 μl of 0.6 M HCl. Subsequently, 100 μl of a second reaction mixture (3.7 units of purified bovine liver glutamate dehydrogenase, 160 mM Tris/acetate [pH 9.4], 400 mM hydrazine, 5 mM ADP and 2 mM NAD^+) was added to the stopped first reaction mixture and incubated for 30 min at 25°C. The absorbance at 340 nm was measured using a Wallac Victor2V plate reader (PerkinElmer), fitted with a 340 nm excitation filter. Sample absorbance was measured against a blank, containing no human glutaminase. The kinetic constants Km and Vmax were determined by using Kaleida Graph software (Synergy Software) to calculate a non-linear least-squares fit for all the data points to the Michaelis-Menten equation.

[1] = Carcinoma cell growth inhibition (cytotoxicity), A549; conditions: human, A549 lung carcinoma cells
Method: (§1) The cancer cell lines including HepG2 and A549 were obtained from American Type Culture Collection (Rockville, MD). The cells were cultured in DMEM medium with 10% FBS (v/v) and penicillin (100 units/ml)/ streptomycin (100 mg/ml). Cultures were maintained in a humidified incubator at 37°C in 5% CO2/95% air. Dulbecco's Modified Eagle Medium (DMEM), fetal bovine serum (FBS), penicillin, streptomycin, and all other tissue culture reagents were obtained from GIBCO/BRL Life Technologies (Grand Island, NY).
(§2) A549 lung carcinoma and HepG2 hepatocarcinoma cells were seeded at 4000 and 10000 cells/well respectively in 96-well plates, as previously described for cell growth inhibition assay [27, 44].

[2] = Carcinoma cell growth inhibition (cytotoxicity), HepG2; conditions: human, HepG2 hepatocarcinoma cells
Method: as §1, §2

in vitro [3] = conditions: human
Method: as §1, §2

in vitro [4] = conditions: human; remark: listed apart in the source
Method: as §1, §2

HepG2 cells = assay: Colony (focus) formation assay, HepG2; format: cell-based, human; conditions: HepG2, 21-day treatment
Method: A549 lung carcinoma and HepG2 hepatocarcinoma cells were seeded at 4000 and 10000 cells/well respectively in 96-well plates, as previously described for cell growth inhibition assay [27, 44]. To assess anchorage-dependent colony formation effect, the cells (1000 cells/well) were seeded in a six-well plate for 20-24 h prior to treatments of vehicle DMSO or compounds as indicated. Culture medium containing vehicle DMSO or compounds as indicated was changed twice a week. After a 21-day treatment, the cell colonies were rinsed with PBS, fixed in 3:1 ratio of methanol and acetic acid, stained with 0.05% crystal violet.

mTORC1 = assay: Western blot of mTORC1 components and downstream targets in HepG2 cells; format: cell-based, human; conditions: co-treatment with AV-1
Method: (§3) The cells were cultured in DMEM medium with 10% FBS (v/v) and penicillin (100 units/ml)/ streptomycin (100 mg/ml). Cultures were maintained in a humidified incubator at 37°C in 5% CO2/95% air. Dulbecco's Modified Eagle Medium (DMEM), fetal bovine serum (FBS), penicillin, streptomycin, and all other tissue culture reagents were obtained from GIBCO/BRL Life Technologies (Grand Island, NY). Antibodies to GAPDH, caspase 3, LC3B, p-ULK1(S317), p-ULK1(S757), Beclin1, p-BCL2(S70), p70S6K, p-p70S6K(T389), 4E-BP1, α-tubulin, 4E-BP, p-4E-BP(S65), p-eIF4B(S422), mTOR, p-mTOR(S2481), p-mTOR(S2448), p-Raptor(S792), Tuberin, p-Tuberin(T1462), p-Tuberin(T1387), p-AMPK(T172) and p-AMPK(S108) were from Cell Signaling Technology; antibody to p-Beclin1(S15) was from Abbiotec; antibodies to KGA and Raptor were from Abcam; antibodies to BCL2 were from Upstate Biotechnology; antibodies to α-tubulin were from Chemicon International; antibodies to ULK1, β-tublin and AMPK were from GeneTex; antibodies to GAB were from abnova and Gene Tex; antibodies to GAC were from ProteinTech Group; antibodies to p-mTOR(S2446) and AMPK were from Millipore; anti-mouse and anti-rabbit IgGs were obtained from PerkinElmer. […] Compound C was obtained from Sigma–Aldrich (St. Louis, MO). Western blotting was performed as described [40].

AMPK = assay: Western blot of AMPK_ULK1 axis signaling in HepG2 cells; format: cell-based, human; conditions: co-treatment with AV-1
Method: as §3

| IC50 (human GAB) | IC50 (human KGA) | SMILES | CC50 [1] | CC50 [2] | also measured |
| --- | --- | --- | --- | --- | --- |
| 2.9 ± 0.6 µM | 73 ± 3 µM | CCCCCCCC/C=C\CCCCCCCc1cc(O)cc(O)c1 [AK-1] |  |  |  |
| 2.7 µM | 76.9 ± 0.8 µM | CCCCCCCC/C=C\CCCCCCCc1cc(O)c(C)c(O)c1 [AK-3] |  |  |  |
|  | 59.8 ± 4.6 µM | CCCCCC/C=C\CCCCCCCc1cc(O)c(C)c(O)c1 [AK-4] |  |  |  |
| 2.3 ± 0.4 µM | 70 ± 1.6 µM | COc1cc(O)cc(CCCCCCC/C=C\CCCCCCCc2cc(O)c(C)c(O)c2)c1 [AK-5] |  |  |  |
| 2.5 ± 0.3 µM | 36.7 ± 3.2 µM | COc1cc(O)cc(CCCCC/C=C\CCCCCCCc2cc(O)c(C)c(O)c2)c1 [AK-6] |  |  |  |
| 2.9 ± 0.8 µM | 17.5 ± 2.6 µM | Cc1c(O)cc(CCCCCCC/C=C\CCCCCCCc2cc(O)c(C)c(O)c2)cc1O [AK-7] | > 100 µM | > 100 µM |  |
| 3.1 ± 0.5 µM | 13.9 ± 1.5 µM | Cc1c(O)cc(CCCCC/C=C\CCCCCCCc2cc(O)c(C)c(O)c2)cc1O [AK-8] |  |  |  |
| 2.3 ± 0.5 µM | 11.9 ± 1.2 µM | Cc1c(O)cc(CCCCCCC/C=C\CCCCCCCc2cc(O)cc(O)c2)cc1O [AK-9] |  |  |  |
| 2.1 ± 0.1 µM | 11.7 ± 1.3 µM | Cc1c(O)cc(CCCCCCC/C=C\CCCCCc2cc(O)cc(O)c2)cc1O [AK-10] |  |  |  |
| 2.9 ± 0.5 µM | 13.4 ± 2.2 µM | COc1cc(O)cc(CCCCCCC/C=C\CCCCCCCc2cc(O)cc(O)c2)c1 [AK-11] |  |  |  |
| 2.9 ± 0.6 µM | 9.6 ± 1.2 µM | COc1cc(O)cc(CCCCCCC/C=C\CCCCCc2cc(O)cc(O)c2)c1 [AK-12] | > 100 µM | 84.6 ± 2.3 µM |  |
| 25.1 ± 4.5 µM |  | CCCCCCCCCCCCCC(CC1=C(O)C(=O)C=C(OC)C1=O)OC(C)=O (centres unmarked) [AV-3] | > 50 µM | > 50 µM |  |
|  |  | CCCCCCCCCCCC(CC1=C(O)C(=O)C=C(OC)C1=O)OC(C)=O (centres unmarked) [AV-4] | > 50 µM | > 50 µM |  |
|  |  | CCCCCCCCCCCCCC1=C(O)C(=O)C=C(OC)C1=O [AV-7] |  |  | CC50 (in vitro [3]): > 50 µM; CC50 (in vitro [4]): > 50 µM |
|  |  | CCCCCCCCCCCC(Cc1cc(O)cc(OC)c1O)OC(C)=O (centres unmarked) [AV-8] | 11.6 ± 0.4 µM | 18.8 ± 0.7 µM |  |
| 31.7 ± 6.7 µM |  | CCCCCCCCCCCC(Cc1cc(OC(C)=O)cc(OC)c1O)OC(C)=O (centres unmarked) [AV-9] | 13 ± 2.1 µM | 13.7 ± 2.2 µM |  |
| 23.1 ± 4.9 µM |  | CCCCCCCCCCCC(Cc1c(O)c(OC)cc(O)c1C=O)OC(C)=O (centres unmarked) [AV-10] | 22.1 ± 1.6 µM | 21.2 ± 0.8 µM |  |
| 5.7 ± 1.1 µM | 69 ± 3.1 µM | CCCCCCCCCCCCCC(Cc1cc(OC(C)=O)cc(OC)c1O)OC(C)=O (centres unmarked) [AV-11] | 5 ± 0.8 µM | 5.2 ± 0.3 µM |  |
| 7.6 ± 2 µM | 52.4 ± 15.5 µM | CCCCCCCCCCCCCC(O)Cc1cc(O)cc(OC)c1 (centres unmarked) [AV-12] | > 50 µM | > 50 µM |  |
|  | 52.7 ± 2.7 µM | CCCCCCCc1cc(O)cc(OC)c1 [AV-13] | 35.5 ± 2.6 µM | 36.9 ± 2 µM |  |
| 4.7 ± 1.3 µM | 41 ± 5.2 µM | CCCCCCCCCCCCCC(=O)Cc1cc(O)cc(OC)c1OC(C)=O [AV-14] | > 50 µM | > 50 µM |  |
|  |  | O=C(Cc1ccccc1)Nc1nnc(CCSCCc2nnc(NC(=O)Cc3ccccc3)s2)s1 [BPTES] |  |  | IC50 (HepG2 cells): 2.8 ± 0.4 µM |
|  |  | c1cc(-c2cnn3cc(-c4ccc(OCCN5CCCCC5)cc4)cnc23)ccn1 [compound C] |  |  | Effect on AV-1 induced phosphorylation of Raptor at Ser792 and Tuberin at Ser1387 (mTORC1): attenuated; Effect on the AV-1 decreased phosphorylation of ULK1 Ser757 (AMPK): reversed |

| SMILES | IC50 (human GAB) | IC50 (human KGA) | CC50 [1] | CC50 [2] | also measured |
| --- | --- | --- | --- | --- | --- |
| [N-]=[N+]=CC(=O)CC[C@H](N)C(=O)O [DON, reference compound] |  | 59.9 ± 8.8 µM |  |  |  |
